Assay results taken from patent publication US20110136791A1, “COMBINATION OF A NICOTINIC RECEPTOR PARTIAL AGONIST AND OF AN ACETYLCHOLINESTERASE INHIBITOR, PHARMACEUTICAL COMPOSITION CONTAINING SAME AND USE THEREOF IN THE TREATMENT OF COGNITIVE DISORDERS” (priority 2008, published 2011).

How the values were obtained:
[1] = test system: CD1-strain mice injected ICV with Aβ25-35 peptide; assay: Test of short-term visual episodic memory deficit induced by ICV injections of β-amyloid protein 25-35 in mice (object recognition); type: in vivo, mouse; details: Aβ25-35 mice; for Effect on short-term recall performance levels (in words): 0.1 mg/kg each, intraperitoneally; for Exploration time, familiar object (recalling session) / Exploration time, new object (recalling session) / Recognition index (new/(new + familiar)): intraperitoneally 60 min before each session, 1 hour forgetting period, each active 0.1 mg/kg (base equivalent); for Exploration time, familiar object (recalling session) / Exploration time, new object (recalling session): 5 min test
Protocol: 2. Test of short-term visual episodic memory deficit induced by intracerebroventricular (ICV) injections of β-amyloid protein 25-35 in mice
The Aβ25-35 peptide fragment contains the 11 amino acids necessary and sufficient for inducing neurological toxicity.
The Aβ25-35 amyloid peptide is dissolved in distilled water at a final concentration of 3 mg/ml. It is then incubated at 37° C. for 4 days in order to form aggregates of toxic peptide. The control animals receive the scrambled peptide, consisting of the same amino acids, but organized according to a random sequence.
The peptide is injected intracerebroventricularly into CD1-strain mice anaesthetized with isoflurane. A microsyringe fitted with a 28-gauge needle 3 mm long is used. The needle is inserted unilaterally, 1 mm to the right of the central line equidistant from each eye and at an equal distance between the axis of the eyes and the axis of the ears. 3 μl of the aggregated peptide are injected over a period of one minute. The mice are used for the behavioral tests between 6 and 14 days after the intracerebral injection.
1.) Accustomization phase: In this protocol, the mice are first subjected to a session of accustomization to the environmental context (light grey PVC chain of 52×52×40 cm, illumination at 6 Lux) for a period of 10 minutes. The time spent in active locomotion is measured using a timer. 2.) Learning phase: 24 hours later, two exactly identical objects (either metal triangles (5.5×3.3 cm), or a square red Lego brick (3.0×3.0×3.0 cm)) are placed in the experimental device. Each mouse is placed in the middle of the chamber, the nose against the wall opposite that where the objects/stimulus are located. The pairs of objects presented are alternated equitably in each of the groups of mice. The animals are left in the experimental chamber until they reach a time spent exploring the two objects equal to 10 seconds, out of a maximum period of 3 minutes. As soon as the 10 seconds of exploration are reached, the mouse is put back in its housing cage.
3.) Recalling session: The recalling session takes place after a forgetting period of 1 hour for all the groups. […] The mice are confronted with a pair of objects consisting of the object encountered during the learning phase and an unknown object. The mice are placed in the chamber in the same way as for the learning session.
This test lasts 5 minutes, during which the time spent exploring each of the 2 objects is measured.
(§1) For the learning and recalling sessions, the exploration of an object is counted if the animal orients its nose toward the object, inside a perimeter of 2 cm around said object, or if it touches it with its nose or its feet. If the rat moves around the object or sits on it, these behaviors are not considered to be exploratory.
(§2) The raw data are expressed in seconds.
The compounds to be tested are administered intraperitoneally, 60 minutes before each of the three sessions of the protocol.
Five experimental groups were formed, receiving, respectively:
During the recalling session, i.e. 1 hour after the learning session, the times spent exploring the two objects, expressed in seconds, are measured. • Similar exploration times with respect to the familiar object and to the new object reflect the fact that the familiar object has been forgotten, and therefore that there is complete abolition of the short-term recall performance levels. • Conversely, a longer exploration time for the new object compared with the familiar object reflects a good short-term memory recall performance level.

rats with no deficit = assay: Test for spontaneous forgetting in rats with no deficit (object recognition test, visual episodic memory); type: in vivo; details: rat; for Exploration time, familiar object (recalling session) / Exploration time, new object (recalling session) / Recognition index (new/(new + familiar)): p.o. 60 min before each session, 24 h forgetting period, group 2: 0.1 mg/kg, group 3: rivastigmine 0.03 mg/kg, group 4: 0.01 + 0.03 mg/kg; for Exploration time, familiar object (recalling session) / Exploration time, new object (recalling session): 3 min test; for Discrimination between the familiar object and the new object during the recalling session (in words): p.o., inactive doses, 24 hours after the learning session
Protocol: 1. Test for Spontaneous Forgetting in Rats with No Deficit
1.) Accustomization phase: In this protocol, the animals are first subjected to a session of accustomization to the environmental context (a wooden chamber of 65×45×45 cm) for a period of 2 minutes. The time spent in active locomotion is measured using a timer. 2.) Learning phase: 24 hours later, two exactly identical objects (either metal triangles or pyramids made of Lego) are placed in the experimental device. Each rat is placed in the middle of the chamber, the nose against the wall opposite that where the objects/stimulus are located. The pairs of objects presented are alternated equitably in each of the groups of rats. The animals are left in the experimental chamber until they reach a period of exploration of the two objects equal to 20 seconds, out of a maximum period of 3 minutes. As soon as the 20 seconds of exploration are reached, the rat is put back in its housing cage. […] 3.) Recalling session: The recalling session takes place after a forgetting period of 24 h for all the groups. The rats are confronted with a pair of objects consisting of the object encountered during the learning phase and an unknown object. The rats are placed in the same way as for the learning session.
This test lasts 3 minutes, during which the time spent exploring each of the 2 objects is measured.
Conversely, if the animal has forgotten the familiar object, the times spent exploring the new object and the familiar object will be similar.
as §1, with “sessions, the exploring of an” for “sessions, the exploration of an”, “of 2 centimeters around said” for “of 2 cm around said”, “nose or with its feet.” for “nose or its feet.”
as §2
The test compounds are administered orally 60 minutes (rat study) before each of the three sessions of the protocol.
Four experimental groups are formed, said groups receiving, respectively:
During the recalling session, 24 hours after the learning session, the times spent exploring the two objects, expressed in seconds, and the recognition index (time spent exploring the new object/total time spent exploring the new and familiar objects) are measured. • Similar exploration times with respect to the familiar object and to the new object reflect the fact that the familiar object has been forgotten, and therefore that there is a visual episodic memory deficit.
Conversely, a longer exploration time for the new object than for the familiar object reflects significant recollection of the familiar object and therefore an improvement in visual episodic memory. • A relatively low recognition index reflects the fact that the familiar object has been forgotten, and therefore that there is a visual episodic memory deficit.
Conversely, a high recognition index reflects significant recollection of the familiar object, and therefore an improvement in visual episodic memory.
The above doses are expressed in base equivalent.

Row | Compound | Effect on short-term recall performance levels (in words) [1] | Exploration time, familiar object (recalling session) [1] [s] | Exploration time, new object (recalling session) [1] [s] | Recognition index (new/(new + familiar)) [1] | Exploration time, familiar object (recalling session) (rats with no deficit) [s] | Exploration time, new object (recalling session) (rats with no deficit) [s] | Recognition index (new/(new + familiar)) (rats with no deficit) | Discrimination between the familiar object and the new object during the recalling session (in words) (rats with no deficit)
1 | O=C(O)/C=C/C(=O)O.O=C(Oc1ccc(Br)cc1)N1CCN2CCC1CC2 [4-bromophenyl 1,4-diazabicyclo[3.2.2]nonane-4-carboxylate (2E)-but-2-enedioate] | do not result in an improvement in performance levels | 4.30 ± 0.70 | 6.30 ± 0.60 | 0.60 ± 0.04 | 10.47 ± 0.84 | 11.10 ± 1.44 | 0.50 ± 0.04 | no significant discrimination between the familiar object and the new object
2 | COc1cc2c(cc1OC)C(=O)C(CC1CCN(Cc3ccccc3)CC1)C2 (stereo not shown) [donepezil] | do not result in an improvement in performance levels | 4.60 ± 0.70 | 5.00 ± 0.80 | 0.52 ± 0.05 | – | – | – | –
3 | CCN(C)C(=O)Oc1cccc([C@H](C)N(C)C)c1 [rivastigmine] | – | – | – | – | 10.10 ± 1.56 | 9.42 ± 1.86 | 0.48 ± 0.05 | no significant discrimination between the familiar object and the new object
